According to patent publication US20030215888A1, “Androgen receptor overexpressing skeletal myoblasts” (Pfizer Inc., priority 2002, published 2003):
Where two headings read alike, the source gives them in different places.

Columns and labels:
C2hAR57 cells [1] = assay: [3H]-thymidine uptake assay, C2hAR57 cells; type: cell-based, mouse; settings: 48 hours exposure
Procedure: After 48 hours exposure to the test agents, medium containing 0.1 μCi [^3H]-thymidine (82 Ci/mmol, Amersham, Buckinghamshire, UK) per well was added and incubation was continued for two additional hours at 37° C. The assay was terminated by aspirating the culture medium and washing with ice-cold phosphate buffered saline followed by 5% trichloroacetic acid. The cells where then lysed by applying 0.3 N NaOH (75 μl per well) followed by 0.3 N HCl (75 μl per well) to neutralize the NaOH. The radioactivity in 50-μl aliquots was determined by liquid scintillation counting in 96-well plates (Packard Instrument Corporation) using a TopCount™ Scintillation Counter (Packard Instrument Corporation).

C2C12 cells [2] = settings: C2C12, 100 nM DHT
Procedure: (§1) Each cell sample was pelleted by low-speed centrifugation and resuspended in 0.5 ml phosphate buffered saline containing 100 micrograms/ml ribonuclease A and 20 microgram/ml propidium iodide for 30 minutes at room temperature.

C2hAR57 cells [3] = settings: C2hAR57, 100 nM DHT
Procedure: as §1

C2C12 cells [4] = settings: for protein content / protein content, percentage difference from vehicle: 3 days in fusion medium
Procedure: Procedure A—Three days in fusion medium. C2hAR57 cells were plated in 12-well tissue culture plates (Costar, Corning, N.Y.) at 4×10^4 cells/well in high mitogen growth medium.

C2hAR57 cells [5] = settings: for Change in protein content: during 24 hours in fusion medium
Procedure: Procedure B—24 Hours in fusion medium. […] Cell extracts were prepared from the second set of cultures after 24 hours in fusion medium (day one). The change in protein content was determined by subtracting the average protein content for each treatment on day zero from the average protein content on day one.

[6] = system: IGF-II transcripts in C2C12 cells; settings: C2C12, 100 nM DHT
Procedure: (§2) Day zero samples were harvested just prior to the induction of differentiation. […] Total RNA was isolated using Trizol®, and RNA concentration was determined by UV spectroscopy. Samples containing 20 micrograms of total RNA were separated by electrophoresis on formaldehyde-containing agarose gels, transferred to Duralon-UV™ nylon membrane (Stratagene, La Jolla, Calif.) by capillary blotting in 5×SSPE and probed sequentially for IGFBP4, IGF-II and 18S ribosomal RNA. DNA fragments used for probes were generated by reverse transcription polymerase chain reaction using rat skeletal muscle poly A+ RNA as template. […] Probes were denatured by boiling and used at a concentration of 1-2×10^6 dpm/ml hybridization solution (50% formamide, 6×SSC, 1% SDS, 15×Denhardt's solution, 0.1 mg/ml sheared salmon sperm DNA). Following hybridization at 42° C. for at least 24 hours, the membranes were washed to moderate stringency with 0.3×SSC/0.1% SDS at 55° C. […] Between successive probings, the membrane was stripped by incubation at 70° C. for one to three hours in a solution consisting of 5 mM Tris HCl, pH 8, 0.2 mM Na2EDTA, 0.05% sodium pyrophosphate and 0.1×Denhardt's solution. The imaging plate was exposed for 42 hours and 90 minutes to the IGFBP4 and IGF-II hybridizations, respectively. The 18S signal was used to normalize the hybridization signals from each of the other probes.

[7] = system: IGF-II transcripts in C2hAR57 cells; settings: C2hAR57, 100 nM DHT
Procedure: as §2

[8] = system: IGFBP4 transcripts in C2C12 cells; settings: C2C12, 100 nM DHT
Procedure: as §2

[9] = system: IGFBP4 transcripts in C2hAR57 cells; settings: C2hAR57, 100 nM DHT
Procedure: as §2

C2C12 cells [10] = settings: C2C12, 100 nM DHT, 24 hours in fusion medium
Procedure: (§3) All cultures were approximately 80% confluent at the time of mitogen withdrawal. After 24 hour in fusion medium, the medium containing nonadherent cells was transferred to centrifuge tubes. The dishes were then rinsed with phosphate buffered saline and adherent cells were collected by trypsinization. Cell pellets were recovered by centrifugation and lysed in 50 mM Tris HCl, pH 8, 100 mM Na2EDTA, 0.5% sodium dodecylsulfate. […] DNA yields from pools of five dishes were determined by UV spectroscopy at 260 nm. Aliquots corresponding to 10 μg DNA were analyzed by electrophoresis on a 1% agarose gel in TBE buffer and visualized by ethidium bromide fluorescence with UV transillumination.

C2hAR57 cells [11] = settings: C2hAR57, 100 nM DHT; remark: listed apart in the source
Procedure: as §3

C2hAR57 cells [12] = settings: C2hAR57, 100 nM DHT, 1, 2 or 3 days in fusion medium
Text: Fusion medium was changed daily. C2hAR57 cells at low density in high mitogen growth medium appeared as small, adherent mononuclear cells.

**Q.** Which results are given for `C[C@]12CCC(=O)C[C@@H]1CC[C@@H]1[C@@H]2CC[C@]2(C)[C@@H](O)CC[C@@H]12` [DHT, dihydrotestosterone]?
**A.** effect on [3H]-thymidine uptake (C2hAR57 cells [1]): dose-dependent inhibitory effects; effect on fraction of cells at each stage of the cell cycle (C2C12 cells [2]): unaffected; Percentage of cells in G2-M (C2C12 cells [2]; 24 h): 15.6 ± 1.2%; Percentage of cells in GO-G1 (C2C12 cells [2]; 24 h): 40.3 ± 0.8%; Percentage of cells in S (C2C12 cells [2]; 24 h): 45.3 ± 1.1%; Percentage of cells in G2-M (C2C12 cells [2]; 48 h): 15.8 ± 0.7%; Percentage of cells in GO-G1 (C2C12 cells [2]; 48 h): 38.0 ± 0.6%; Percentage of cells in S (C2C12 cells [2]; 48 h): 46.2 ± 0.7%; Percentage of cells in G2-M (C2hAR57 cells [3]; 24 h): 14.3 ± 0.4 %; Percentage of cells in GO-G1 (C2hAR57 cells [3]; 24 h): 54.5 ± 0.7 %; Percentage of cells in S (C2hAR57 cells [3]; 24 h): 31.2 ± 0.6 %; Percentage of cells in G2-M (C2hAR57 cells [3]; 48 h): 15.1 ± 1.1 %; Percentage of cells in GO-G1 (C2hAR57 cells [3]; 48 h): 51.2 ± 2.8 %; Percentage of cells in S (C2hAR57 cells [3]; 48 h): 33.7 ± 3.2 %; protein content (C2C12 cells [4]; C2C12, 0.001 nM DHT): 245 ± 5 micrograms/well; protein content, percentage difference from vehicle (C2C12 cells [4]; C2C12, 0.001 nM DHT): +3%; protein content (C2C12 cells [4]; C2C12, 0.01 nM DHT): 228 ± 3 micrograms/well; protein content, percentage difference from vehicle (C2C12 cells [4]; C2C12, 0.01 nM DHT): −4%; protein content (C2C12 cells [4]; C2C12, 0.1 nM DHT): 246 ± 4 micrograms/well; protein content, percentage difference from vehicle (C2C12 cells [4]; C2C12, 0.1 nM DHT): +3%; protein content (C2C12 cells [4]; C2C12, 1 nM DHT): 256 ± 9 micrograms/well; protein content, percentage difference from vehicle (C2C12 cells [4]; C2C12, 1 nM DHT): +7%; protein content (C2C12 cells [4]; C2C12, 10 nM DHT): 243 ± 6 micrograms/well; protein content, percentage difference from vehicle (C2C12 cells [4]; C2C12, 10 nM DHT): +2%; protein content (C2C12 cells [4]; C2C12, 100 nM DHT): 243 ± 6 micrograms/well; protein content, percentage difference from vehicle (C2C12 cells [4]; C2C12, 100 nM DHT): +2%; protein content (C2C12 cells [4]; C2C12, 1000 nM DHT): 278 ± 2 micrograms/well; protein content, percentage difference from vehicle (C2C12 cells [4]; C2C12, 1000 nM DHT): +17%; change in total protein content (C2C12 cells [4]; C2C12 cultures, DHT 10^-12-10^-6 M, Procedure A): no consistent change; Change in protein content (C2hAR57 cells [5]; C2hAR57, 0.001 nM DHT): −93 micrograms/well; Change in protein content (C2hAR57 cells [5]; C2hAR57, 0.1 nM DHT): −56 micrograms/well; Change in protein content (C2hAR57 cells [5]; C2hAR57, 10 nM DHT): +48 micrograms/well; Change in protein content (C2hAR57 cells [5]; C2hAR57, 1000 nM DHT): +61 micrograms/well; effect on net loss of protein seen with vehicle (C2hAR57 cells [5]; C2hAR57, increasing concentrations of DHT, Procedure B): ameliorated and even reversed; increase of IGF-II transcripts ([6]; 0 days in fusion medium): 0.8 ×; increase of IGF-II transcripts ([6]; 1 day in fusion medium): 1.5 ×; increase of IGF-II transcripts ([6]; 2 days in fusion medium): 1.0 ×; increase of IGF-II transcripts ([7]; 0 days in fusion medium): 10.2 ×; increase of IGF-II transcripts ([7]; 1 day in fusion medium): 3.6 ×; increase of IGF-II transcripts ([7]; 2 days in fusion medium): 2 ×; magnitude of IGFBP4 suppression ([8]; 0 days in fusion medium): 20%; magnitude of IGFBP4 suppression ([8]; 1 day in fusion medium): 51%; magnitude of IGFBP4 suppression ([8]; 2 days in fusion medium): 44%; magnitude of IGFBP4 suppression ([9]; 0 days in fusion medium): 75%; magnitude of IGFBP4 suppression ([9]; 1 day in fusion medium): 86%; magnitude of IGFBP4 suppression ([9]; 2 days in fusion medium): 70%; DNA, adherent cells (C2C12 cells [10]): 504 μg/dish; DNA, nonadherent cells (% total) (C2C12 cells [10]): 2.9%; effect on the fraction of nonadherent cells (C2C12 cells [10]): did not appreciably alter; reduction of the incidence of apoptotic cells (C2hAR57 cells [11]; 24 hour period following mitogen withdrawal): approximately 75%; DNA, adherent cells (C2hAR57 cells [11]; 24 hours in fusion medium): 528 μg/dish; DNA, nonadherent cells (C2hAR57 cells [11]; 24 hours in fusion medium): 2.6 μg/dish; DNA, nonadherent cells (% total) (C2hAR57 cells [11]; 24 hours in fusion medium): 0.5%; rate of myotube formation (C2hAR57 cells [12]): more rapidly
